Measured values published in US5258492A, “LHRH analogues with cytotoxic moieties at the sixth position” (The Administrators of the Tulane Educational Fund, priority 1991, dated 1993).

What was measured:
[1] = target: T1, membrane receptors of human breast cancer cells (Homo sapiens, UniProt P30968); test: Binding affinity for membrane receptors of human breast cancer cells using 125I-labeled [D-Trp6]LHRH
T1 construct: endogenous in cells; host or cells: human breast cancer cells (membranes)
T1 sequence (P30968 1-328): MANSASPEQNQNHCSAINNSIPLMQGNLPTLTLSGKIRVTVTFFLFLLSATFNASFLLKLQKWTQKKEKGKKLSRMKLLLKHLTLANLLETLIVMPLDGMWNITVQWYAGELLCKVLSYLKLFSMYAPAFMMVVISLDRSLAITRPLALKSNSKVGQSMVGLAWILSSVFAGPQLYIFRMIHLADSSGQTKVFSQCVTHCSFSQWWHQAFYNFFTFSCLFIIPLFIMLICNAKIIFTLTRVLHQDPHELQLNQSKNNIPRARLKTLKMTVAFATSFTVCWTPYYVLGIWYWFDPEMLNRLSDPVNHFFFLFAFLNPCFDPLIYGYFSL
Procedure: (§1) This is determined by using labelled LHRH and [D-Trp^6 ]LHRH. The assay is carried out similarly to that described by T. Kadar et al., Proc. Natl. Acad. Sci. USA, 85, 890-894 (1988).
(§2) Table 2 presents the antiovulatory activity of the claimed compounds having LHRH-inhibiting properties. The inhibitory action was determined in vivo, in 4-day cycling rats as described [A. Corbin and C. W. Beattie, Endocr. Res. Commun., 2, 1-23 (1975)]. Affinities of the claimed compounds to membrane receptors of rat pituitary and human breast cancer cells are also given in Tables 1 and 2 as determined by using [^125 I,D-Trp^6 ]LHRH.
(§3) **Affinity constants of the peptides for the first receptor class (i.e.
(§4) for high affinity binding sites) of pituitary of male rats and human
(§5) breast cancer cells, respectively, as determined by using ^125
(§6) Ilabeled [DTrp^6 ]LHRH.
(§7) breast cancer cells, respectively, were determined by using ^125

4-day cycling rats = test: In vivo antiovulatory activity in 4-day cycling rats; parameters: species or system rat
Procedure: This activity of the peptides is determined in 4-day-cycling rats as described [A. Corbin and C. W. Beattie, Endocr. Res. Commun., 2, 1-23 (1975)].
as §2
*LHRH-inhibiting potencies were assayed in 4day cyclic rats.

[2] = target: T2, membrane receptors of pituitary of male rats (Rattus norvegicus, UniProt P30969); test: Binding affinity for membrane receptors of rat pituitary using 125I-labeled [D-Trp6]LHRH
T2 construct: from tissue; host or cells: pituitary of male rats (membranes)
T2 sequence (P30969 1-327): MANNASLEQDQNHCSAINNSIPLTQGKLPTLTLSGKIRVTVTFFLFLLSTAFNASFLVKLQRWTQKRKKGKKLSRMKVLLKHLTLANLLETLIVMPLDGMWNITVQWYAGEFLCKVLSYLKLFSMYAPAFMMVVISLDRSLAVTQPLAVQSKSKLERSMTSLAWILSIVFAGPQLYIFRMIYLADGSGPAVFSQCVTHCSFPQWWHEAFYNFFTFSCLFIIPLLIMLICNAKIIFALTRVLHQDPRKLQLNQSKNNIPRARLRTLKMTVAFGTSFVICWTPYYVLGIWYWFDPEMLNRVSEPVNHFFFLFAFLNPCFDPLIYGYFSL
Procedure: as §1, §2, §3, §4, §5, §6, §7

[3] = tested on: dispersed rat pituitary cell superfusion system; test: LH release in dispersed rat pituitary cell superfusion system (agonistic activity); type: cell-based; settings: Table 1; peptide infused 3 min, LH released compared to 3 nM LHRH
Procedure: *LH responses to the analogues were determined in dispersed rat pituitary
cell superfusion system.

[4] = Table 2, high affinity binding sites
[5] = Table 1, high affinity binding sites

Binding affinity, Ka1, for membrane receptors of cancer cells [1, 4] [nM⁻¹] | Binding affinity, Ka1, for membrane receptors of pituitary [2, 4] [nM⁻¹] | Binding affinity, Ka1, for membrane receptors of cancer cells [1, 5] [nM⁻¹] | Binding affinity, Ka1, for membrane receptors of pituitary [2, 5] [nM⁻¹] | Substance | Hormonal activity, LH responses rel. to LHRH (= 1) [3] | also measured
3.408 | 7.622 |  |  | Ac-D-Nal(2)-D-Phe(4 Cl)-D-Trp-Ser-Arg-D-Lys[(Cu^++)(POL)2 (DL-A2 pr)]-Leu-Arg-Pro-D-Ala-NH2 [Example XXIII] |  | % Blockade of ovulation (4-day cycling rats; Dose 10 μg/rat): 40%
2.628 | 5.483 |  |  | Ac-D-Nal(2)-D-Phe(4Cl)-D-Pal(3)-Ser-Arg-D-Lys[(Cu^++)(POL)2 (DL-A2 pr)]-Leu-Arg-Pro-D-Ala-NH2 [XXIV] |  | % Blockade of ovulation (4-day cycling rats; Dose 3 μg/rat): 50%
2.436 | 5.250 |  |  | Ac-D-Nal(2)-D-Phe(4Cl)-D-Pal(3)-Ser-Arg-D-Lys[(Cu^++)(POLP)2 (DL-A2 pr)]-Leu-Arg-Pro-D-Ala-NH2 [Example XX] |  | % Blockade of ovulation (4-day cycling rats; Dose 3 μg/rat): 80%
0.192 |  |  |  | Ac-D-Nal(2)-D-Phe(4Cl)-D-Pal(3)-Ser-Arg-D-Lys[(Cu^++)(SAL)2 (A2 bu-Eac)]-Leu-Arg-Pro-D-Ala-NH2 [XXVIII] |  | 
2.152 |  |  |  | Ac-D-Nal(2)-D-Phe(4Cl)-D-Pal(3)-Ser-Arg-D-Lys[(PtCl2)-A2 bu-Eac)]-Leu-Arg-Pro-D-Ala-NH2 [XXVII] |  | 
 |  | 1.348 | 3.051 | [D-Lys[(Cu^++)(SAL)2 (L-A2 pr)]^6 ]LHRH [VIA] | 12 | 
 |  | 3.334 | 6.457 | [D-Lys[(Ni^++)(SAL)2(D-A2 pr)]^6 ]LHRH [VIIIB] | 10 | 
 |  | 5.234 | 9.710 | [D-Lys[(Ni^++)(SAL)2(L-A2 pr)]^6 ]LHRH [VIIIA] | 12 | 
 |  | 3.995 | 8.625 | pGlu-His-Trp-Ser-Tyr-D-Lys[(Cu^++)(CISAL)2 (DL-A2 pr)]-Leu-Arg-Pro-Gly-NH2 [Example IX] | 10 | 

Substance | Binding affinity, Ka1, for membrane receptors of cancer cells [1, 4] [nM⁻¹] | Binding affinity, Ka1, for membrane receptors of pituitary [2, 4] [nM⁻¹] | Binding affinity, Ka1, for membrane receptors of cancer cells [1, 5] [nM⁻¹] | Binding affinity, Ka1, for membrane receptors of pituitary [2, 5] [nM⁻¹] | Hormonal activity, LH responses rel. to LHRH (= 1) [3] | also measured
Ac-D-Nal(2)-D-Phe(4Cl)-D-Pal(3)-Ser-Arg-D-Lys[(Ni^++)(SAL)2 (DL-A2 pr)]-Leu-Arg-Pro-D-Ala-NH2 [XIII] | 0.878 | 1.821 |  |  |  | % Blockade of ovulation (4-day cycling rats; rat, in vivo): 100
